Experimental data from ChEMBL document CHEMBL1201862, “PubChem BioAssay data set” (2004).
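Compound exposure: 48 hours, 5 concentrations, 96-well plates. GI50 is the concentration that inhibits growth by half.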 The source made the active and inactive calls. Cut-off read from the data, not from the text of the source: active = GI50 up to about 1.1 µM and inactive = higher.

Tests used:
Experiment in all cases: NCI anticancer screen, dose series, 48 h
SN12C = system: SN12C
SF-268 = system: SF-268
HCT-15 = system: HCT-15
NCI-H460 = system: NCI-H460
TK-10 = system: TK-10
Malme-3M = system: Malme-3M
XF498 = system: XF498
OVCAR-5 = system: OVCAR-5
RXF 393 = system: RXF 393
UACC-257 = system: UACC-257
SNB-78 = system: SNB-78
HT-29 = system: HT-29
DMS-273 = system: DMS-273
DLD-1 = system: DLD-1
NCI-H23 = system: NCI-H23
SK-OV-3 = system: SK-OV-3
HOP-92 = system: HOP-92
DMS-114 = system: DMS-114
COLO 205 = system: COLO 205
KM-20L2 = system: KM-20L2
RPMI-8226 = system: RPMI-8226
SK-MEL-2 = system: SK-MEL-2
KM12 = system: KM12
M19-MEL = system: M19-MEL
SK-MEL-5 = system: SK-MEL-5
786-0 = system: 786-0
CCRF-CEM = system: CCRF-CEM
LOX IMVI = system: LOX IMVI
OVCAR-4 = system: OVCAR-4
A549 = system: A549
HCC 2998 = system: HCC 2998
CAKI-1 = system: CAKI-1
SF-295 = system: SF-295
HOP-62 = system: HOP-62
MOLT-4 = system: MOLT-4
SK-MEL-28 = system: SK-MEL-28
UACC-62 = system: UACC-62
SNB-75 = system: SNB-75
M14 = system: M14
LXFL 529 = system: LXFL 529
SW-620 = system: SW-620
RXF 631 = system: RXF 631
K562 = system: K562
NCI-H522 = system: NCI-H522
EKVX = system: EKVX
IGROV-1 = system: IGROV-1
ACHN = system: ACHN
OVCAR-3 = system: OVCAR-3
HL-60 = system: HL-60
OVCAR-8 = system: OVCAR-8
U-251 = system: U-251
UO-31 = system: UO-31
SR = system: SR
SNB-19 = system: SNB-19
A498 = system: A498
HCT-116 = system: HCT-116
NCI-H226 = system: NCI-H226
SF-539 = system: SF-539
HOP-18 = system: HOP-18

Measured: GI50

CCOC(=O)C(C)c1c(C(=O)c2ccc(C)nc2)c2ccccc2n1C (stereo not given)
> 100 µM: HCT-15
inactive: SN12C > 100 µM | SF-268 > 100 µM | NCI-H460 > 100 µM | TK-10 > 100 µM | Malme-3M > 100 µM | XF498 83 µM | OVCAR-5 > 100 µM | RXF 393 > 100 µM | UACC-257 > 100 µM | SNB-78 > 100 µM | HT-29 > 100 µM | DMS-273 > 100 µM | DLD-1 > 100 µM | NCI-H23 > 100 µM | SK-OV-3 > 100 µM | HOP-92 82.8 µM | DMS-114 > 100 µM | COLO 205 > 100 µM | KM-20L2 > 100 µM | RPMI-8226 72.1 µM | SK-MEL-2 82.8 µM | KM12 > 100 µM | M19-MEL > 100 µM | SK-MEL-5 > 100 µM | 786-0 > 100 µM | CCRF-CEM > 100 µM | LOX IMVI > 100 µM | OVCAR-4 > 100 µM | A549 > 100 µM | HCC 2998 > 100 µM | CAKI-1 > 100 µM | SF-295 > 100 µM | HOP-62 > 100 µM | MOLT-4 > 100 µM | SK-MEL-28 > 100 µM | UACC-62 > 100 µM | SNB-75 33.3 µM | M14 > 100 µM | LXFL 529 > 100 µM | SW-620 > 100 µM | RXF 631 > 100 µM | K562 > 100 µM | NCI-H522 79.6 µM | EKVX > 100 µM | IGROV-1 > 100 µM | ACHN > 100 µM | OVCAR-3 > 100 µM | HL-60 > 100 µM | OVCAR-8 > 100 µM

CN(C)CCONC(=O)C12CC3CC(CC(C3)C1)C2
active: Malme-3M 0.02 µM
> 100 µM: HCT-15
inactive: SN12C > 100 µM | U-251 > 100 µM | SF-268 > 100 µM | NCI-H460 > 100 µM | TK-10 > 100 µM | XF498 > 100 µM | UO-31 > 100 µM | OVCAR-5 > 100 µM | RXF 393 > 100 µM | UACC-257 > 100 µM | SNB-78 26.2 µM | HT-29 > 100 µM | DLD-1 > 100 µM | NCI-H23 > 100 µM | SK-OV-3 > 100 µM | HOP-92 > 100 µM | DMS-114 > 100 µM | COLO 205 > 100 µM | KM-20L2 > 100 µM | RPMI-8226 > 100 µM | SK-MEL-2 > 100 µM | SR > 100 µM | KM12 > 100 µM | SNB-19 > 100 µM | M19-MEL > 100 µM | SK-MEL-5 > 100 µM | A498 > 100 µM | 786-0 > 100 µM | CCRF-CEM > 100 µM | HCT-116 > 100 µM | LOX IMVI > 100 µM | A549 > 100 µM | CAKI-1 > 100 µM | SF-295 > 100 µM | NCI-H226 > 100 µM | HOP-62 > 100 µM | MOLT-4 > 100 µM | SK-MEL-28 > 100 µM | UACC-62 > 100 µM | SNB-75 > 100 µM | M14 > 100 µM | LXFL 529 > 100 µM | RXF 631 > 100 µM | K562 > 100 µM | NCI-H522 > 100 µM | EKVX > 100 µM | IGROV-1 > 100 µM | ACHN > 100 µM | OVCAR-3 > 100 µM | SF-539 > 100 µM | HL-60 > 100 µM | OVCAR-8 > 100 µM

COC(=O)CCC(NC(=S)N/N=C(\C)c1ccccn1)C(=O)OC (stereo not given)
40.9 µM: HCT-15
inactive: SN12C 89.1 µM | U-251 53.2 µM | SF-268 52.1 µM | NCI-H460 65.8 µM | TK-10 > 100 µM | Malme-3M 45.4 µM | XF498 > 100 µM | UO-31 38.1 µM | OVCAR-5 25.9 µM | RXF 393 35 µM | UACC-257 97.5 µM | HT-29 > 100 µM | HOP-18 41.4 µM | DLD-1 43 µM | NCI-H23 > 100 µM | SK-OV-3 > 100 µM | HOP-92 41.7 µM | DMS-114 20.6 µM | COLO 205 30 µM | KM-20L2 32.4 µM | RPMI-8226 44.4 µM | SK-MEL-2 > 100 µM | SR > 10 µM | KM12 91.6 µM | SNB-19 > 100 µM | M19-MEL 37.2 µM | SK-MEL-5 40.5 µM | A498 > 100 µM | 786-0 65.8 µM | CCRF-CEM 29.6 µM | HCT-116 60.8 µM | LOX IMVI 44.2 µM | OVCAR-4 > 100 µM | A549 66.8 µM | HCC 2998 > 100 µM | SF-295 59.2 µM | NCI-H226 60.7 µM | HOP-62 57.3 µM | MOLT-4 24.2 µM | SK-MEL-28 66.7 µM | UACC-62 34.8 µM | SNB-75 > 100 µM | M14 31.6 µM | LXFL 529 40.4 µM | SW-620 55.3 µM | RXF 631 34.1 µM | K562 53.7 µM | NCI-H522 33.3 µM | EKVX 43.6 µM | IGROV-1 82.8 µM | ACHN 28.5 µM | OVCAR-3 38.8 µM | SF-539 85.7 µM | HL-60 18.5 µM | OVCAR-8 66.8 µM
